Results published in article PMC7854685, “Histone Parylation factor 1 contributes to the inhibition of PARP1 by cancer drugs” (Nature Communications, 2021).
Several values for one entry are separate records, joined by “and”; a condition that tells them apart may be missing. Identical values can stand only once. Entries after “also recorded” stand apart in the source; their conditions may differ. Like-named read-outs stand apart in the source and are kept apart here. Marks after values point to notes of the source that are not given here. Values belong to the molecule of their own block, whether it stands above or below them.

Tests used:
PARP1 [1] = target: T1, PARP1 (Homo sapiens, UniProt P09874); assay: Release of fluorescently labeled p18mer DNA (fluorescence polarization) upon NAD+ addition, KI determination for PARPi, with or without HPF1; assay type: biochemical; parameters: Wild-type PARP1 and PARP2 were expressed and purified as previously described; made in house;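 further: PARP1 bound to fluorescein-tagged DNA and preincubated with inhibitor, then high NAD+ added, drop in fluorescence polarization tracked as the DNA dissociates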;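 on slope: slope of the inhibitor-concentration replot from which KI is derived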
Method: (§1) Starting with a complex of PARP1 or PARP2 bound to a PARPi and fluorescently labeled DNA, we monitor the loss of fluorescence polarization upon addition of high concentrations of NAD^+ (2 mM) as the labeled DNA is released from the PARylated PARPs (Fig. 1a).
(§2) Intuitively one might expect the observed rate of release of labeled DNA to reflect the slow dissociation of PARPi from the complex (koff; see Fig. 1a). However, the kinetics are actually more complex as there is competition between the inhibitor re-binding (kon[I]) and the binding of, and reaction with, NAD^+ (k2[NAD^+]) (Fig. 1a).
(§3) Next, 10 µL of PARP1 or PARP2 (10 nM) premixed with fluorescein labeled p18mer DNA (5 nM), was added to the various dilutions of PARPi and then incubated for 30 min to ensure complete association. Dissociation of labeled DNA was initiated by addition of 10 µL of NAD^+ (2 mM). […] We emphasize that the same correction is applied to the data for all PARPi. […] We can use the KI (derived from the slope of the replot, Fig. 2) and the minimal koff to calculate a minimal kon (KI = koff/kon, Supplementary Table 2).

PARP2 [2] = target: T2, PARP2 (Homo sapiens, UniProt Q9UGN5); assay: as above; assay type: biochemical
T2 construct: Wild-type PARP1 and PARP2 were expressed and purified as previously described; made in house
Method: as §1, §2, §3

PARP1 [3] = target: T1, PARP1; details: cited from earlier work
PARP2 [4] = target: T2, PARP2; assay: Fluorescence polarization association/dissociation of fl-Ola, with p18mer or Nuc165, with or without HPF1; assay type: binding; parameters: On (individual replicates): unit not given here;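 on Kd: fluorescence polarization read every minute over 1000 min, association and dissociation traces fitted to a single exponential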;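 on Off (individual replicates): fluorescence polarization read every minute over 1000 min, association and dissociation traces fitted to a single exponential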;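 on On (individual replicates): fluorescence polarization read every minute over 1000 min, association and dissociation traces fitted to a single exponential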;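 on On average: fluorescence polarization read every minute over 1000 min, association and dissociation traces fitted to a single exponential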
PARP1 [5] = target: T1, PARP1; assay: as above; assay type: binding; parameters: Wild-type PARP1 and PARP2 were expressed and purified as previously described; made in house; on rate (observed, single run): unit not given here
[6] = PARP1, +HPF1, single experiment
[7] = PARP1, without HPF1, single experiment
[8] = PARP2, +HPF1, single experiment
[9] = PARP2, without HPF1 (apo), single experiment
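Wherever slope is given: slope of the inhibitor-concentration replot from which KI is derived.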

T2 sequence (Q9UGN5 whole entry): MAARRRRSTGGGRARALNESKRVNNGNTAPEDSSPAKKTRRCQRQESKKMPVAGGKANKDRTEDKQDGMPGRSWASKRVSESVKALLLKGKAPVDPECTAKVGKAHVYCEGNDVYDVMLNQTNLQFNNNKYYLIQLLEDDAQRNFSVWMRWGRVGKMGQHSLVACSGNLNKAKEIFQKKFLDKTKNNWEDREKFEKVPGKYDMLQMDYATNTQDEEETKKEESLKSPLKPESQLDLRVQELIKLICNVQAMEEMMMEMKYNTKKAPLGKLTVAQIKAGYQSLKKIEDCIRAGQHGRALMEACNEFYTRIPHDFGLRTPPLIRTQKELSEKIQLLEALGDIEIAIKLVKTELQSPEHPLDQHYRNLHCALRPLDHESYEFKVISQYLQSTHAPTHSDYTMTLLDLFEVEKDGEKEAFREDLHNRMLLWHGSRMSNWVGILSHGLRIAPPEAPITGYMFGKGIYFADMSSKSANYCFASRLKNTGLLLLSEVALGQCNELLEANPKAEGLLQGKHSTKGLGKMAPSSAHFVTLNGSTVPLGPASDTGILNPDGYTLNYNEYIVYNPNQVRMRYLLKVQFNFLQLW
T1 sequence (P09874 whole entry): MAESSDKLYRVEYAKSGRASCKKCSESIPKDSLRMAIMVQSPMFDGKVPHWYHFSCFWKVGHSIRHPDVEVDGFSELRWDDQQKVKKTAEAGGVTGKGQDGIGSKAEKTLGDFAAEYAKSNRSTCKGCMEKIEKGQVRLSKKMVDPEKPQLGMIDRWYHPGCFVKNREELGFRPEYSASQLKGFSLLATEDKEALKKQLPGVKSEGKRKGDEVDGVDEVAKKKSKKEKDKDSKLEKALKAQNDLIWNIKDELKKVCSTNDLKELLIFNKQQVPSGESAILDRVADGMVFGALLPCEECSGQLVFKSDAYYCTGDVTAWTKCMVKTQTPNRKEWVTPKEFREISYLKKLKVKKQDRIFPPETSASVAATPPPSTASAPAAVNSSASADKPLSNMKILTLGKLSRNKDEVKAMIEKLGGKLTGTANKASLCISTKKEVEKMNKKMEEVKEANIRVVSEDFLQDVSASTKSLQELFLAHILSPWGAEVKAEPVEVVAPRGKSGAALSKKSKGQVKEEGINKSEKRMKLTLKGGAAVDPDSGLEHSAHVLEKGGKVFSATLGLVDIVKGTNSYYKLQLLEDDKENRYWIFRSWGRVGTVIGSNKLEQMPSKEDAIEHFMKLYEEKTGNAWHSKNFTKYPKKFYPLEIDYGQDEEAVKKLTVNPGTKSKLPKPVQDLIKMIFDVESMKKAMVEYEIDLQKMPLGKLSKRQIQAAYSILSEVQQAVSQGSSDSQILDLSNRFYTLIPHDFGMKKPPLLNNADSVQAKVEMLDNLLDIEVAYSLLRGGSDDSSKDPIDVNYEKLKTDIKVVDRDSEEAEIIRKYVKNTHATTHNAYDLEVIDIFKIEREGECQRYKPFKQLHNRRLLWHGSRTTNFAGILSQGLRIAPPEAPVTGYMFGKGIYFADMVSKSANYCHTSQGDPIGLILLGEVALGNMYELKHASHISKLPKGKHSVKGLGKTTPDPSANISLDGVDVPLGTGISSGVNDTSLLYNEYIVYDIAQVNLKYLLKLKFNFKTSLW

t1/2est average (PARP1 [1]; PARP1, +HPF1, average): 38.5 min
slope (PARP1 [1]; [6]): 149 s/nM and 124 s/nM and 110 s/nM
t1/2est (PARP1 [1]; [6]): 39 min and 37.5 min
t1/2est average (PARP1 [1]; PARP1, without HPF1, average): 4.58 min
t1/2est (PARP1 [1]; [7]): 4.75 min and 4.5 min
SMILES: NC(=O)c1cccc2[nH]c(-c3ccc([C@@H]4CCCN4)cc3F)nc12 [A-966492]
slope (PARP1 [1]; [7]): 34.7 s/nM and 49.9 s/nM and 38.6 s/nM

t1/2est average (PARP1 [1]; PARP1, +HPF1, average): 28.33 min
t1/2est (PARP1 [1]; [6]): 29 min and 28 min
t1/2est average (PARP1 [1]; PARP1, without HPF1, average): 8.7 min
t1/2est (PARP1 [1]; [7]): 5.5 min and 11 min and 9.5 min and 8 min
SMILES: NC(=O)c1cccc2cn(-c3ccc([C@@H]4CCCNC4)cc3)nc12 [Nira]
slope (PARP1 [1]; [6]): 60.3 s/nM and 61 s/nM and 66.7 s/nM

t1/2est average (PARP2 [2]): 4.05 min and 4.08 min
SMILES: O=C(c1cc(Cc2n[nH]c(=O)c3ccccc23)ccc1F)N1CCN(C(=O)C2CC2)CC1 [Olaparib]
t1/2est (PARP2 [2]): 4.17 min and 4.5 min and 3 min and 5.5 min and 4 min and 2.83 min

t1/2est average (PARP1 [1]; PARP1, +HPF1, average): 250 min
t1/2est (PARP1 [1]; [6]): 250 min
t1/2est average (PARP1 [1]; PARP1, without HPF1, average): 57.5 min
SMILES: CNCc1ccc(-c2[nH]c3cc(F)cc4c3c2CCNC4=O)cc1 [Rucaparib]
PARP-trapping (PARP1 [3]): strong

On average (PARP2 [4]; PARP2, Nuc147): 5.7 per uM per sec
On average (PARP2 [4]; PARP2, Nuc147/HPF1): 2.3 per uM per sec
Kd (PARP2 [4]; PARP2, Nuc165): 0.018 ± 0.0046 nM
Kd (PARP2 [4]; PARP2, Nuc165/HPF1): 0.0249 ± 0.0047 nM
Kd (PARP2 [4]; PARP2, p18mer): 0.0141 ± 0.0039 nM
Off average (PARP2 [4]; PARP2, p18mer): 0.44 per hr
On (individual replicates) (PARP2 [4]; PARP2, p18mer): 0.06673 and 0.08057 and 0.1117
On average (PARP2 [4]; PARP2, p18mer): 8.6 per uM per sec
Kd (PARP2 [4]; PARP2, p18mer/HPF1): 0.0205 ± 0.0048 nM
On average (PARP2 [4]; PARP2, p18mer/HPF1): 5.5 per uM per sec
on rate average (PARP1 [5]; PARP1, Nuc165): 2.17 per uM per sec
on rate average (PARP1 [5]; PARP1, Nuc165+HPF1): 4.35 per uM per sec
on rate average (PARP1 [5]; PARP1, buffer): 0.39 per uM per sec
on rate average (PARP1 [5]; PARP1, p18mer): 1.27 per uM per sec
on rate average (PARP1 [5]; PARP1, p18mer+HPF1): 1.95 per uM per sec
SMILES: CC1=CC(C)=[N+]2C1=Cc1ccc(CCC(=O)N3CCN(C(=O)c4cc(Cc5n[nH]c(=O)c6ccccc56)ccc4F)CC3)n1[B-]2(F)F [fl-Ola]
Off (individual replicates) (PARP2 [4]; PARP2, Nuc147): 0.000128 per sec and 0.000098 per sec and 0.000096 per sec and 0.000087 per sec
On (individual replicates) (PARP2 [4]; PARP2, Nuc147): 0.06047 and 0.0458 and 0.0509 and 0.06962
Off (individual replicates) (PARP2 [4]; PARP2, Nuc147/HPF1): 0.000060 per sec and 0.000066 per sec and 0.000047 per sec
On (individual replicates) (PARP2 [4]; PARP2, Nuc147/HPF1): 0.02342 and 0.02572 and 0.02231 and 0.02096
Off (individual replicates) (PARP2 [4]; PARP2, p18mer): 0.000127 per sec and 0.000133 per sec and 0.000111 per sec and 0.000117 per sec
Off (individual replicates) (PARP2 [4]; PARP2, p18mer/HPF1): 0.000135 per sec and 0.000112 per sec and 0.000093 per sec
On (individual replicates) (PARP2 [4]; PARP2, p18mer/HPF1): 0.06627 and 0.04795 and 0.05623 and 0.05079
off rate (single run) (PARP1 [5]; PARP1, Nuc165): 0.004215 per min and 0.004911 per min and 0.004071 per min and 0.00473 per min and 0.004639 per min
off rate (single run) (PARP1 [5]; PARP1, Nuc165+HPF1): 0.001434 per min and 0.001853 per min and 0.001613 per min and 0.002575 per min and 0.002863 per min
on rate (observed, single run) (PARP1 [5]; PARP1, Nuc165+HPF1): 0.03904 and 0.05638 and 0.0311 and 0.04561 and 0.04092 and 0.03175 and 0.05953
off rate (single run) (PARP1 [5]; PARP1, buffer): 0.001297 per min and 0.001272 per min and 0.001404 per min and 0.001129 per min
on rate (observed, single run) (PARP1 [5]; PARP1, buffer): 0.002763 and 0.003297 and 0.003517 and 0.004488 and 0.003954 and 0.005011 and 0.004368 and 0.00415
off rate (single run) (PARP1 [5]; PARP1, p18mer): 0.005934 per min and 0.004771 per min and 0.005583 per min and 0.004919 per min and 0.005548 per min
off rate (single run) (PARP1 [5]; PARP1, p18mer+HPF1): 0.002334 per min and 0.002172 per min and 0.002936 per min and 0.003134 per min and 0.003344 per min
on rate (observed, single run) (PARP1 [5]; PARP1, p18mer+HPF1): 0.02205 and 0.01731 and 0.01849 and 0.01852 and 0.01515 and 0.01847 and 0.02629

Further lines, the molecule ahead of its results:

SMILES: COC1CCN(C(=O)c2cc(Cc3n[nH]c(=O)c4ccccc34)ccc2F)CC1 [AZD-2461]
Fold (t-test) (PARP1 [1]; PARP1, fold-difference in Ki caused by the addition of HPF1): 2.9 ** fold
Ki (PARP1 [1]; PARP1 alone, p18mer DNA, 2 mM NAD+, read-out: Ki): 2.2 ± 0.6 nM

SMILES: COC1CCN(C(=O)c2cc(Cc3n[nH]c(=O)c4ccccc34)ccc2F)CC1 [AZD]
koff (est) average (PARP1 [1]; PARP1, +HPF1, average): ≥ 0.00058 s⁻¹
t1/2est average (PARP1 [1]; PARP1, +HPF1, average): 20.75 min
Ki (PARP1 [1]; PARP1, +HPF1, average, read-out: Ki average): 0.78 nM
slope (PARP1 [1]; [6]): 49 s/nM and 51 s/nM and 67.1 s/nM and 43 s/nM
t1/2est (PARP1 [1]; [6]): 17 min and 20 min and 29 min
Ki (PARP1 [1]; PARP1, +HPF1, single experiment, read-out: Ki): 0.82 nM and 0.78 nM and 0.6 nM and 0.93 nM
kon ratio (PARP1 [1]; PARP1, ratio of averages with and without HPF1): 1.75
Ki ratio (PARP1 [1]; PARP1, ratio of averages without and with HPF1): 2.85
koff (est) average (PARP1 [1]; PARP1, without HPF1, average): ≥ 0.00295 s⁻¹
t1/2est average (PARP1 [1]; PARP1, without HPF1, average): 4.72 min
Ki (PARP1 [1]; PARP1, without HPF1, average, read-out: Ki average): 2.23 nM
slope (PARP1 [1]; [7]): 9.4 s/nM and 16.4 s/nM and 15.8 s/nM and 16.1 s/nM and 10.2 s/nM and 11.0 s/nM
Ki (PARP1 [1]; PARP1, without HPF1, single experiment, read-out: Ki): 2.96 nM and 1.69 nM and 1.76 nM and 1.73 nM and 2.72 nM and 2.53 nM

SMILES: Cn1ncnc1[C@H]1c2n[nH]c(=O)c3cc(F)cc(c23)N[C@@H]1c1ccc(F)cc1 [Tala]
t1/2est average (PARP2 [2]; PARP2, +HPF1, average): 9.17 min
slope (PARP2 [2]; [8]): 91 s/nM and 65 s/nM
t1/2est (PARP2 [2]; [8]): 11 min and 10 min and 6.5 min
slope (PARP2 [2]; [9]): 180 s/nM and 131 s/nM and 191 s/nM
t1/2est (PARP2 [2]; [9]): 7.5 min and 6.5 min
t1/2est average (PARP2 [2]; PARP2, without HPF1, average): 6.83 min
t1/2est average (PARP1 [1]; PARP1, +HPF1, average): >333.33 min
t1/2est (PARP1 [1]; [6]): 333.33 min
t1/2est average (PARP1 [1]; PARP1, without HPF1, average): 121.7 min
slope (PARP1 [1]; [7]): 1743 s/nM and 2697 s/nM and 2953 s/nM and 2451 s/nM
t1/2est (PARP1 [1]; [7]): 138.5 min and 95.83 min and 118.5 min and 134 min

SMILES: C[C@]1(c2nc3c(C(N)=O)cccc3[nH]2)CCCN1 [Veliparib]
PARP-trapping (PARP1 [3]): weak

SMILES: NC(=O)c1ccc(I)c([N+](=O)[O-])c1 [iniparib]
Inhibition of DNA release from PARP1 (PARP1 [1]; PARP1, 20-2500 nM): not an inhibitor of PARP1; also recorded: does not have this effect
